Source: patent US6858621B2, “2-(quinolonyl)-fused heterocycles as androgen receptor modulators” (Ortho-McNeil Pharmaceutical, Inc., priority 2002, dated 2005)

Target: T1, androgen receptor LBD (Panvera) (Rattus norvegicus, UniProt P15207)
T1 construct: 5 pmol androgen receptor LBD (Panvera); purchased Panvera
T1 sequence (P15207 651-882 limits assumed): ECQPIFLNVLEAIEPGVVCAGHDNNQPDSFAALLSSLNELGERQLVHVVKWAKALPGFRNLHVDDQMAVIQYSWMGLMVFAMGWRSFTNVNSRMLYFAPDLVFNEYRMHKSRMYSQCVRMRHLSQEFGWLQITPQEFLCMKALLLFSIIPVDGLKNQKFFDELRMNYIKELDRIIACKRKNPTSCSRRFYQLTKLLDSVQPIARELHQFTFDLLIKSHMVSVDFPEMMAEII
Assay: Androgen Receptor Filtration Binding Assay (Panvera receptor)
Details: Panvera receptor data; 0.5 nM [3H] R1881 tracer
Method: In Vitro Assay—Androgen Receptor Filtration Binding Assay
The assay was run on a 96 well plate with each well filled with total reaction volume 150 μL, of a solution containing 5 pmol androgen receptor LBD (Panvera) or […] of freshly prepared rat cytosol, 0.5 nM [^3H] R1881 tracer (NEN), 1.5 μL (10 μM) test compound or vehicle (diluted in 30% DMSO, final concentration of DMSO 0.75%) and […] of TED buffer. (TED buffer contains 10 mM Tris.HCl pH 7.4, 1 mM sodium molybdate (60 mg/250 mL), 1.5 mM EDTA, 1 mM DTT and 10% (v/v) glycerol.)
On day one, the solution containing receptor, tracer and TED buffer was distributed onto a 96 well plate. Diluted test compound or control vehicle was then added to individual wells and the plate incubated ay 4° C. overnight.
On day two, to each well was then added 20 μL human γ-globulin (ICN 823102), prepared at 25 mg/ml in TE pH 8.0 and 55 μL 40% polyethylene glycol 8000 (J T Baker U222-08), prepared in TE pH 8.0. […] The plate wells were then counted on a TopCount (Packard).
Representative compounds of the present invention were tested for binding to the androgen receptor according to the procedure described above with results as listed in Table 3. % Inhibition values less that 0% indicate no binding at the […] level. The negative number(s) are a result of experimental error from the low number of counts detected.

Row | Structure (SMILES) | IC50 [µM]
1 | O=c1cc(C(F)(F)F)c2c3c(ccc2[nH]1)OC(F)(F)C(F)(F)O3 [compound 2] | 4.8
2 | O=c1cc(C(F)(F)F)c2c3c(ccc2[nH]1)OCCO3 [compound 1] | 5.2
